Legend:
Assay in all cases: Test B pre-/postemergence plant response
Assay type in all cases: in vivo
[1] = tested on: johnsongrass (Sorghum halepense)
In short: (§1)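 Visually scored on a 0 to 100 scale after 13 to 15 days in greenhouse versus controls. Treatments were preemergence on seeded loam/sand soil and postemergence on 1- to 4-leaf plants.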

kochia (Kochia scoparia) = tested on: kochia (Kochia scoparia)
In short: as §1

[2] = tested on: lambsquarters (Chenopodium album)
In short: as §1

[3] = tested on: Surinam grass (Brachiaria decumbens); conditions: for Plant response rating, Surinam Grass: Postemergence, scale 0 to 100 (0 no effect, 100 complete control)
In short: as §1

[4] = tested on: ragweed (common ragweed, Ambrosia elatior); conditions: for Plant response rating, Ragweed: Postemergence, scale 0 to 100 (0 no effect, 100 complete control)
In short: as §1

[5] = tested on: downy bromegrass (Bromus tectorum)
In short: as §1

[6] = tested on: large crabgrass (Digitaria sanguinalis)
In short: as §1

[7] = tested on: Italian ryegrass (Lolium multiflorum); conditions: for Plant response rating, Ryegrass, Italian: Postemergence, scale 0 to 100 (0 no effect, 100 complete control)
In short: as §1

[8] = tested on: velvetleaf (Abutilon theophrasti); conditions: for Plant response rating, Velvetleaf: Postemergence, scale 0 to 100 (0 no effect, 100 complete control)
In short: as §1

[9] = tested on: woolly cupgrass (Eriochloa villosa)
In short: as §1

[10] = tested on: giant foxtail (Setaria faberii)
In short: as §1

[11] = tested on: goosegrass (Eleusine indica)
In short: as §1

[12] = tested on: green foxtail (Setaria viridis)
In short: as §1

corn (Zea mays) = tested on: corn (Zea mays)
In short: as §1

[13] = tested on: yellow nutsedge (Cyperus esculentus)
In short: as §1

[14] = tested on: blackgrass (Alopecurus myosuroides)
In short: as §1

[15] = tested on: bermudagrass (Cynodon dactylon)
In short: as §1

[16] = 31 g ai/ha, postemergence, scale 0 to 100, 0 is no effect, 100 is complete control
[17] = 62 g ai/ha, postemergence, 0 is no effect, 100 is complete control, 13 to 15 days
[18] = Postemergence, 125 g ai/ha, scale 0 to 100 (0 no effect, 100 complete control)
[19] = Postemergence, 250 g ai/ha, scale 0 to 100 (0 no effect, 100 complete control)

O=C1CCCC(O)=C1C(=O)c1cnc(-c2ccsc2)n(CC2CCCO2)c1=O (stereo not shown) [Compound 98]
Plant response rating, Johnsongrass [1, 16]: 55
Johnsongrass plant response rating (0 to 100 scale) [1, 17]: 70
Plant response rating, Johnsongrass [1, 18]: 75
Plant response rating, Johnsongrass [1, 19]: 98
Plant response rating, Kochia (kochia (Kochia scoparia); [16]): 65
Kochia plant response rating (0 to 100 scale) (kochia (Kochia scoparia); [17]): 70
Plant response rating, Kochia (kochia (Kochia scoparia); [18]): 80
Plant response rating, Kochia (kochia (Kochia scoparia); [19]): 98
Plant response rating, Lambsquarters [2, 16]: 95
Lambsquarters plant response rating (0 to 100 scale) [2, 17]: 98
Plant response rating, Lambsquarters [2, 18]: 100
Plant response rating, Lambsquarters [2, 19]: 100
Surinam Grass plant response rating (0 to 100 scale) [3, 17]: 75
Plant response rating, Surinam Grass ([3]; 125 g ai/ha): 85
Plant response rating, Surinam Grass ([3]; 250 g ai/ha): 90
Ragweed plant response rating (0 to 100 scale) [4, 17]: 75
Plant response rating, Ragweed ([4]; 125 g ai/ha): 80
Plant response rating, Ragweed ([4]; 250 g ai/ha): 90
Plant response rating, Bromegrass, Downy [5, 16]: 5
Bromegrass, Downy plant response rating (0 to 100 scale) [5, 17]: 5
Plant response rating, Bromegrass, Downy [5, 18]: 5
Plant response rating, Bromegrass, Downy [5, 19]: 40
Plant response rating, Crabgrass, Large [6, 16]: 75
Crabgrass, Large plant response rating (0 to 100 scale) [6, 17]: 75
Plant response rating, Crabgrass, Large [6, 18]: 80
Plant response rating, Crabgrass, Large [6, 19]: 95
Ryegrass, Italian plant response rating (0 to 100 scale) [7, 17]: 5
Plant response rating, Ryegrass, Italian ([7]; 125 g ai/ha): 15
Plant response rating, Ryegrass, Italian ([7]; 250 g ai/ha): 15
Velvetleaf plant response rating (0 to 100 scale) [8, 17]: 95
Plant response rating, Velvetleaf ([8]; 125 g ai/ha): 95
Plant response rating, Velvetleaf ([8]; 250 g ai/ha): 98
Plant response rating, Cupgrass, Woolly [9, 16]: 65
Cupgrass, Woolly plant response rating (0 to 100 scale) [9, 17]: 70
Plant response rating, Cupgrass, Woolly [9, 18]: 75
Plant response rating, Cupgrass, Woolly [9, 19]: 95
Plant response rating, Foxtail, Giant [10, 16]: 65
Foxtail, Giant plant response rating (0 to 100 scale) [10, 17]: 75
Plant response rating, Foxtail, Giant [10, 18]: 85
Plant response rating, Foxtail, Giant [10, 19]: 85
Plant response rating, Goosegrass [11, 16]: 60
Goosegrass plant response rating (0 to 100 scale) [11, 17]: 75
Plant response rating, Goosegrass [11, 18]: 80
Plant response rating, Goosegrass [11, 19]: 90
Plant response rating, Foxtail, Green [12, 16]: 30
Foxtail, Green plant response rating (0 to 100 scale) [12, 17]: 85
Plant response rating, Foxtail, Green [12, 18]: 85
Plant response rating, Foxtail, Green [12, 19]: 95
Plant response rating, Corn (corn (Zea mays); [16]): 35
Corn plant response rating (0 to 100 scale) (corn (Zea mays); [17]): 35
Plant response rating, Corn (corn (Zea mays); [18]): 55
Plant response rating, Corn (corn (Zea mays); [19]): 70
Plant response rating, Nutsedge, Yellow [13, 16]: 50
Nutsedge, Yellow plant response rating (0 to 100 scale) [13, 17]: 60
Plant response rating, Nutsedge, Yellow [13, 18]: 70
Plant response rating, Nutsedge, Yellow [13, 19]: 75
Plant response rating, Blackgrass [14, 16]: 0
Blackgrass plant response rating (0 to 100 scale) [14, 17]: 5
Plant response rating, Blackgrass [14, 18]: 20
Plant response rating, Blackgrass [14, 19]: 50
Plant response rating, Bermudagrass [15, 16]: 75
Bermudagrass plant response rating (0 to 100 scale) [15, 17]: 80
Plant response rating, Bermudagrass [15, 18]: 85
Plant response rating, Bermudagrass [15, 19]: 98
